# Test results published in patent US9522888B2, “Substituted bicyclic compounds” (BRISTOL-MYERS SQUIBB COMPANY, priority 2014, dated 2016).
# Target: S1P3 (membranes prepared from EDG3-Gal5-bla HEK293T cells) (Homo sapiens (Human), UniProt Q99500)
# Assay: Receptor [35S] GTPγS binding assay (S1P3 GTPγS)
# Format: biochemical
# Conditions: phosphate examples; read-out: S1P3 GTPγS
# Protocol: (§1) Receptor [^35S] GTPγS Binding Assays: (S1P1 GTPγS/S1P3 GTPγS)
# (§2) Compounds were loaded in a 384 Falcon v-bottom plate (0.5 μl/well in a 11 point, 3-fold dilution). Membranes prepared from S1P1/CHO cells or EDG3-Gal5-bla HEK293T cells (EDG3 equivalent S1P3) were added to the compound plate (40 μl/well, final protein 3 μg/well) with MULTIDROP®. [^35S] GTP (1250 Ci/mmol, Perkin Elmer) was diluted in assay buffer: 20 mM HEPES, pH7.5, 10 mM MgCl2, 150 mM NaCl, 1 mM EGTA (ethylene glycol tetraacetic acid), 1 mM DTT (Dithiothreitol), 10 μM GDP, 0.1% fatty acid free BSA, and 10 μg/ml Saponin to 0.4 nM. 40 μl of the [^35S] GTP solution was added to the compound plate with a final concentration of 0.2 nM. The reaction was kept at room temperature for 45 min. At the end of incubation, all the mixtures in the compound plate were transferred to Millipore 384-well FB filter plates via the VELOCITY11® Vprep liquid handler. The filter plate was washed with water 4 times by using the manifold Embla plate washer and dried at 60° C. for 45 min. MicroScint 20 scintillation fluid (30 μl) was added to each well for counting on the Packard TOPCOUNT®.
# A smaller value for GTPγS S1P1 EC50 value indicated greater activity for the compound in the GTPγS S1P1 binding assay. A larger value for the GTPγS S1P3 EC50 value indicated less activity in the GTPγS S1P3 binding assay. […] Thus the compounds of the present invention may be used in treating, preventing, or curing various S1P1 receptor-related conditions while reducing or minimizing the side effects due to S1P3 activity. The selectivity of the compounds of the present invention indicate their potential use in treating, preventing, or curing autoimmune and inflammatory diseases such as multiple sclerosis, rheumatoid arthritis, inflammatory bowel disease, lupus, psoriasis, or vascular diseases, while reducing or minimizing possible side effects due to S1P3 activity. Other potential uses of the compounds of the present invention include minimizing or reducing rejection of transplanted organs, while reducing or minimizing side effects due to S1P3 activity.
# S1P3 (membranes prepared from EDG3-Gal5-bla HEK293T cells), sequence (Q99500 whole entry): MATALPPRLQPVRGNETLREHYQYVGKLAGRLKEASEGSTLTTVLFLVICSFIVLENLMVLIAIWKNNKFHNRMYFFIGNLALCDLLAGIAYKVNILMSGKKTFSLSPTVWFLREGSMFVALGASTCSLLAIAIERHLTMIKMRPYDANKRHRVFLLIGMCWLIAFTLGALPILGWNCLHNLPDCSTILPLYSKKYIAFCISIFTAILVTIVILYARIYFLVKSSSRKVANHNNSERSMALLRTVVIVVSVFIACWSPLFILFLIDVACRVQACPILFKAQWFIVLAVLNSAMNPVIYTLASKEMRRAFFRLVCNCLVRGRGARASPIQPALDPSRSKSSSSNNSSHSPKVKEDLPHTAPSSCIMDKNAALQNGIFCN
row,Structure (SMILES),EC50 [µM]
1,N[C@@]1(COP(=O)(O)O)CCC(c2ccc3c(c2)CN(CCCc2ccccc2)C3=O)C1 (some centres unmarked) [compound 613],> 0.625
2,CCCCNC(=O)OC1CCc2cc([C@H]3CC[C@@](N)(COP(=O)(O)O)C3)ccc2C1 (some centres unmarked) [compound 625],> 0.625
3,CCCCN(C)C(=O)OC1CCc2cc([C@H]3CC[C@](N)(COP(=O)(O)O)C3)ccc2C1 (some centres unmarked) [compound 628],> 0.625
4,CCCCCC[C@H]1CCc2cc([C@H]3CC[C@](N)(COP(=O)(O)O)C3)c(I)cc2C1 [compound 620],> 0.625
5,N[C@]1(COP(=O)(O)O)CCC(c2ccc3c(c2)CN(CCCc2ccccc2)C3=O)C1 (some centres unmarked) [compound 614],> 0.625
6,CCCCCC[C@H]1CCc2cc([C@H]3CC[C@](N)(COP(=O)(O)O)C3)c(C)cc2C1 [compound 622],> 0.625
7,CCCCCCC1CCc2nc([C@@H]3CC[C@@](N)(COP(=O)(O)O)C3)ccc2C1 (some centres unmarked) [compound 612],> 0.625

# The remaining lines, values ahead:
row,EC50 [µM],Structure (SMILES)
1,> 0.625,N[C@]1(COP(=O)(O)O)CC[C@H](c2ccc3c(c2)CCC2(CCCCO2)C3)C1 (some centres unmarked) [compound 634]
2,> 0.625,C=CCCOCCO[C@H]1CCc2cc([C@@H]3CC[C@@](N)(COP(=O)(O)O)C3)ccc2C1 [compound 584]
3,> 0.625,COc1ccc(C[C@@H]2CCc3cc([C@H]4CC[C@](N)(COP(=O)(O)O)C4)ccc3C2)cc1F [compound 554]
4,> 0.625,CCCCC1CCCC2(CCc3cc([C@H]4CC[C@](N)(COP(=O)(O)O)C4)ccc3C2)O1 (some centres unmarked) [compound 630]
5,> 0.625,Cn1cc(COC[C@@H]2CCc3cc([C@H]4CC[C@](N)(COP(=O)(O)O)C4)ccc3C2)cn1 [compound 471]

# Target: hS1P1/CHO cells (Homo sapiens (Human), UniProt P21453)
# Assay: hS1P1 ERK phosphorylation (S1P1 pERK)
# Format: cell-based
# Conditions: phosphate examples
# Protocol: hS1P1 ERK Phosphorylation (S1P1 pERK)
# hS1P1/CHO cells were plated into BD Amine 384-well plates the day before the assay. On the day of the assay, growth medium was removed and replaced with serum-free medium (Ham's F-12 Invitrogen) and incubated for 2 hours. Test compounds pre-diluted in HBSS (Gibco)/20 mM HEPES (Gibco) were transferred to the cell plates and incubated for 7 minutes at 37° C. Cells were lysed in lysis buffer (Perkin Elmer) and phospho-ERK was measured using the SureFire pERK kit (Perkin Elmer) as described by the manufacturer. Data was plotted as percentage activation of the test compound relative to the efficacy of 10 μM S1P.
# hS1P1/CHO cells, sequence (P21453 whole entry): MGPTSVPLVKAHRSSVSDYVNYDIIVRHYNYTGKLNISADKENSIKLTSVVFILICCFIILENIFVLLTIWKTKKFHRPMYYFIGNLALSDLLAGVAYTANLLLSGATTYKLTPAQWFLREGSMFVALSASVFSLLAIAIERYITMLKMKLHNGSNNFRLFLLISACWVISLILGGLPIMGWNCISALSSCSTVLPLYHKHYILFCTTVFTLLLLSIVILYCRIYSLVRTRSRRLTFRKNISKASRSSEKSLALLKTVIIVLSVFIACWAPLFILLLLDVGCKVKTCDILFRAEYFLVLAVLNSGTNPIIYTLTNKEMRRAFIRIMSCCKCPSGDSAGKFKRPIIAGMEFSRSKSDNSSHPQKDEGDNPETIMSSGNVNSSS
row,Structure (SMILES),EC50 [µM]
1,CCCSC[C@H]1CCc2cc([C@H]3CC[C@](N)(COP(=O)(O)O)C3)ccc2C1 [compound 502],< 0.01
2,N[C@@]1(COP(=O)(O)O)CCC(c2ccc3c(c2)CN(CCCc2ccccc2)C3=O)C1 (some centres unmarked) [compound 613],0.1 to 1
3,CCCCNC(=O)OC1CCc2cc([C@H]3CC[C@@](N)(COP(=O)(O)O)C3)ccc2C1 (some centres unmarked) [compound 625],0.01 to 0.1
4,CCCCN(C)C(=O)OC1CCc2cc([C@H]3CC[C@](N)(COP(=O)(O)O)C3)ccc2C1 (some centres unmarked) [compound 628],< 0.01
5,Cc1cc(COC[C@@H]2CCc3cc([C@H]4CC[C@](N)(COP(=O)(O)O)C4)ccc3C2)sc1C [compound 488],< 0.01

# Further lines, results first:
row,EC50 [µM],Structure (SMILES)
1,0.01 to 0.1,CCCCC=C[C@H]1CCc2cc([C@H]3CC[C@](N)(COP(=O)(O)O)C3)ccc2C1 [compound 649]
2,0.01 to 0.1,N[C@]1(COP(=O)(O)O)CC[C@H](c2ccc3c(c2)CCC2(CCCCO2)C3)C1 (some centres unmarked) [compound 634]
3,0.01 to 0.1,COc1ccc(C[C@@H]2CCc3cc([C@H]4CC[C@](N)(COP(=O)(O)O)C4)ccc3C2)cc1F [compound 554]
4,0.1 to 1,CCCCC1CCCC2(CCc3cc([C@H]4CC[C@](N)(COP(=O)(O)O)C4)ccc3C2)O1 (some centres unmarked) [compound 630]
5,0.01 to 0.1,Cn1cc(COC[C@@H]2CCc3cc([C@H]4CC[C@](N)(COP(=O)(O)O)C4)ccc3C2)cn1 [compound 471]
6,0.01 to 0.1,COc1ccc(F)c(OC[C@@H]2CCc3cc([C@H]4CC[C@](N)(COP(=O)(O)O)C4)ccc3C2)c1 [compound 486]

# Target: human S1P1 (Homo sapiens (Human), UniProt P21453)
# Assay: S1P1 binding assay (33P-S1P radioligand competition, CHO cell membranes)
# Conditions: phosphate examples; read-out: S1P1 Binding
# Protocol: Membranes were prepared from CHO cells expressing human S1P1. Cells pellets (1×10^9 cells/pellet) were suspended in buffer containing 20 mM HEPES (4-(2-hydroxyethyl)-1-piperazineethanesulfonic acid), pH 7.5, 50 mM NaCl, 2 mM EDTA (Ethylenediaminetetraacetic acid) and Protease Inhibitor cocktail (Roche), and disrupted on ice using the Polytron homogenizer. The homogenate was centrifuged at 20,000 rpm (48,000 g) and the supernatant was discarded. The membrane pellets were resuspended in buffer containing 50 mM HEPES, pH 7.5, 100 mM NaCl, 1 mM MgCl2, 2 mM EDTA and stored in aliquots at −80° C. after protein concentration determination.
# human S1P1, sequence (P21453 whole entry): as above
row,Structure (SMILES),IC50 [µM]
1,CCCSC[C@H]1CCc2cc([C@H]3CC[C@](N)(COP(=O)(O)O)C3)ccc2C1 [compound 502],< 0.01
2,N[C@@]1(COP(=O)(O)O)CCC(c2ccc3c(c2)CN(CCCc2ccccc2)C3=O)C1 (some centres unmarked) [compound 613],1 to 10
3,CCCCCC[C@H]1CCc2cc([C@H]3CC[C@](N)(COP(=O)(O)O)C3)c(I)cc2C1 [compound 620],0.01 to 0.1
4,Cc1cc(COC[C@@H]2CCc3cc([C@H]4CC[C@](N)(COP(=O)(O)O)C4)ccc3C2)sc1C [compound 488],< 0.01
5,N[C@]1(COP(=O)(O)O)CCC(c2ccc3c(c2)CN(CCCc2ccccc2)C3=O)C1 (some centres unmarked) [compound 614],1 to 10
6,CCCCCC[C@H]1CCc2cc([C@H]3CC[C@](N)(COP(=O)(O)O)C3)c(C)cc2C1 [compound 622],< 0.01
7,CCCCCCC1CCc2nc([C@@H]3CC[C@@](N)(COP(=O)(O)O)C3)ccc2C1 (some centres unmarked) [compound 612],1 to 10

# Second part, the compound after the results:
row,IC50 [µM],Structure (SMILES)
1,0.01 to 0.1,CCCCC=C[C@H]1CCc2cc([C@H]3CC[C@](N)(COP(=O)(O)O)C3)ccc2C1 [compound 649]
2,0.01 to 0.1,N[C@]1(COP(=O)(O)O)CC[C@H](c2ccc3c(c2)CCC2(CCCCO2)C3)C1 (some centres unmarked) [compound 634]
3,< 0.01,C=CCCOCCO[C@H]1CCc2cc([C@@H]3CC[C@@](N)(COP(=O)(O)O)C3)ccc2C1 [compound 584]
4,< 0.01,CCCCC1CCCC2(CCc3cc([C@H]4CC[C@](N)(COP(=O)(O)O)C4)ccc3C2)O1 (some centres unmarked) [compound 630]
5,0.1 to 1,Cn1cc(COC[C@@H]2CCc3cc([C@H]4CC[C@](N)(COP(=O)(O)O)C4)ccc3C2)cn1 [compound 471]

# Target: S1P1 (membranes prepared from S1P1/CHO cells) (Homo sapiens (Human), UniProt P21453)
# Assay: Receptor [35S] GTPγS binding assay (S1P1 GTPγS)
# Format: biochemical
# Conditions: phosphate examples; read-out: S1P1 GTPγS
# Protocol: as §1
# as §2, with “TOPCOUNT®. […]” for “TOPCOUNT®.”
# S1P1 (membranes prepared from S1P1/CHO cells), sequence (P21453 whole entry): as above
row,Structure (SMILES),EC50 [µM]
1,CCCSC[C@H]1CCc2cc([C@H]3CC[C@](N)(COP(=O)(O)O)C3)ccc2C1 [compound 502],0.01 to 0.1
2,CCCCNC(=O)OC1CCc2cc([C@H]3CC[C@@](N)(COP(=O)(O)O)C3)ccc2C1 (some centres unmarked) [compound 625],0.1 to 1
3,CCCCN(C)C(=O)OC1CCc2cc([C@H]3CC[C@](N)(COP(=O)(O)O)C3)ccc2C1 (some centres unmarked) [compound 628],< 0.01
4,CCCCCC[C@H]1CCc2cc([C@H]3CC[C@](N)(COP(=O)(O)O)C3)c(I)cc2C1 [compound 620],< 0.01
5,Cc1cc(COC[C@@H]2CCc3cc([C@H]4CC[C@](N)(COP(=O)(O)O)C4)ccc3C2)sc1C [compound 488],0.01 to 0.1
6,N[C@]1(COP(=O)(O)O)CCC(c2ccc3c(c2)CN(CCCc2ccccc2)C3=O)C1 (some centres unmarked) [compound 614],0.1 to 1
7,CCCCCC[C@H]1CCc2cc([C@H]3CC[C@](N)(COP(=O)(O)O)C3)c(C)cc2C1 [compound 622],< 0.01
8,CCCCCCC1CCc2nc([C@@H]3CC[C@@](N)(COP(=O)(O)O)C3)ccc2C1 (some centres unmarked) [compound 612],0.01 to 0.1

# Results, then the compound that gave them:
row,EC50 [µM],Structure (SMILES)
1,0.1 to 1,CCCCC=C[C@H]1CCc2cc([C@H]3CC[C@](N)(COP(=O)(O)O)C3)ccc2C1 [compound 649]
2,< 0.01,C=CCCOCCO[C@H]1CCc2cc([C@@H]3CC[C@@](N)(COP(=O)(O)O)C3)ccc2C1 [compound 584]
3,0.01 to 0.1,COc1ccc(C[C@@H]2CCc3cc([C@H]4CC[C@](N)(COP(=O)(O)O)C4)ccc3C2)cc1F [compound 554]
4,< 0.01,COc1ccc(F)c(OC[C@@H]2CCc3cc([C@H]4CC[C@](N)(COP(=O)(O)O)C4)ccc3C2)c1 [compound 486]
